Key:
hmNPCs [1] = assay: Protein content of cell extracts (Bradford method); assay type: cell-based; conditions: Homo sapiens, 336 h, 2 weeks of expansion, read-out: protein yield compared to untreated samples
Experimental: (§1) To determine long-term proliferation, hmNPCs were plated and expanded for 2 passages with or without addition of various agents (see below) to the custom expansion media containing the growth factors EGF and FGF2. Different fetal midbrain tissues were included in this study. At the end of the proliferation period, differentiation of hmNPCs was induced via replacement of expansion media with mitogen-free media containing 1% FCS, 5 µM forskoline (Sigma-Aldrich Chemie GmbH Munich, Germany), and 100 pg/ml IL-1β (Sigma). The differentiation and expansion media were supplemented with different drugs as appropriate. Prior to immunocytochemistry or protein extraction, hmNPCs were allowed to differentiate for 1 week. To determine short-term proliferation via Ki67 immunostaining, the cells were seeded into 24-well plates (70,000 cells/well) and left overnight to rest. P2 receptor agonists (ATP, UTP, ATP + UTP, ADP, ADPβS) were supplied daily for 5 consecutive days. Ki67/nestin double-positive cells were counted in 8 randomly selected fields of nucleotide-treated or untreated samples. For the assessment of MAPK phosphorylation the cells were kept free of mitogens for 2 d prior to addition of the MEK-inhibitor in expansion media. In addition, the MEK-inhibitor was added during the differentiation period 15 min before UTP administration.
In order to prepare protein extracts, hmNPCs were collected, washed with ice-cold PBS and lysed in buffer [10 mM HEPES-KOH (pH 7.9), 10 mM KCI, 1.5 mM MgCl2, 0.1% NP-40], supplemented with protease inhibitor cocktail (Roche). After a brief centrifugation at 4°C/10 000×g, protein concentrations and protein yield from extracts were determined using the Bradford method (Bio-Rad, Hercules, CA, USA). To preserve the phosphorylation state of proteins, extracts for the MAPK experiment were obtained using the PhosphoSafe™ extraction reagent containing phophatase inhibitors (Novagen). […] The chemiluminescence was quantified using the AIDA, two-dimensional densitometry software (Raytest lsotopenmeb, Straubenhardt, Germany). […]

hmNPCs [2] = assay: Short-term proliferation: Ki67/nestin immunostaining; assay type: cell-based, human; conditions: Homo sapiens, 120 h, 1 µM, 5 subsequent days
Experimental: as §1, with “hmNPCs” left out, “μM” for “µM”, “administration. […] Cover-slips were mounted onto glass slides and examined under a fluorescence microscope (Zeiss Axiovert 200). Acquisition of the cells was performed using the Image-analysis software AxioVision 4 (Carl Zeiss AG, Jena, Germany). The following primary antibodies were used for immunofluorescence: rabbit polyclonal anti-β-tubulin III (anti-Tuj1) antibody, rabbit polyclonal anti-tyrosine hydroxylase antibody , mouse monoclonal anti-nestin antibody (Pharmingen, San Diego, CA, USA), rabbit polyclonal anti-Ki67 antigen antibody (Novocastra Laboratories Ltd, Newcastle upon Tyne, UK). Estimation of the TH-positive cell numbers was performed by counting of cells among approximately 1000 differentiated cells in total within 6 randomly selected fields.” for “administration.”

O=c1ccn([C@@H]2O[C@H](COP(=O)(O)OP(=O)(O)OP(=O)(O)O)[C@@H](O)[C@H]2O)c(=O)[nH]1 [UTP, uridine 5'-triphosphate]
activity at 1 µM (hmNPCs [1]; 1 µM): 165%
activity at 10 µM (hmNPCs [1]; 10 µM): 125%
activity at 100 µM (hmNPCs [1]; 100 µM): 113%
activity at 1 µM (hmNPCs [2]; read-out: NPCs double-immunoreactive for Ki67 and nestin): 193 ± 3%
activity at 1 µM (hmNPCs [2]; read-out: cells immunoreactive for nestin alone): 188 ± 2%

— patent publication EP1897937A1, “Method of culturing NPCs” (NeuroProgen GmbH Leipzig, priority 2006, dated 2008)
